Measured values from patent publication EP4497440A1, “USE OF 7-TRIFLUOROMETHYL-7ALPHA,25-DIHYDROXYCHOLESTEROL IN THE TREATMENT AND MODULATION OF AUTOIMMUNE AND INFLAMMATORY DISEASES OF THE NERVOUS SYSTEM AND NEURODEGENERATIVE DISEASES” (Gdanski Uniwersytet Medyczny, priority 2023, dated 2025).
“Also recorded” adds a separate entry of the source.

What was measured:
Ebi2 receptor = test: Ebi2 mRNA level in the cerebellum, cuprizone model; type: in vivo, mice; conditions: during remyelination in the cuprizone model
[1] = tested on: mice in the cuprizone model; test: Cuprizone model: mass spectrometer imaging and lipid quantification in brain sections; type: in vivo
Source text: Measurement of lipoprotein density in myelin sheaths, taken on sections of brains of the mice in the cuprizone model. The mice in the cuprizone model subject were divided into 6 groups: • #1. control group: regular cuprizone-free chow for 9 weeks. The mice were euthanised after 9 weeks and tissue samples were taken for analysis. In these mice no removal of myelin sheaths occurred. • #2. control group with cuprizone: chow containing cuprizone for 9 weeks. The mice were euthanised after 9 weeks and tissue samples were taken for analysis. In the mice fed with chow containing cuprizone myelin sheaths were removed. • #3. vehicle control group - the mice were fed with chow containing cuprizone for 9 weeks, and then with regular chow without cuprizone for 2 weeks. Over the 2 weeks on regular show the mice in the vehicle control group were first injected with vehicle #1: DMSO, intraperitoneally, 150 µl once a day, and then with vehicle #2: canola oil, subcutaneously, 150 µl once a day. • #4. barbadin control group - the mice were fed with chow containing cuprizone for 9 weeks and then with regular chow without cuprizone for 2 weeks. […]
Mouse brain sections were imaged using a mass spectrometer and then the lipid density was quantified (Fig 4). […]

[2] = tested on: pro-inflammatory cytokine IL1β; test: Cuprizone model: IL1β mRNA in cerebellum lysates by PCR
Source text: Identifying the mRNA levels of pro-inflammatory cytokine IL1β in mouse cerebellum lysates (Fig 11).

CD4+ cells = test: Cuprizone model: immunofluorescently tagged CD4+ cells in the central part of the corpus callosum; type: in vivo, mice; conditions: after 14 days of treatment in the cuprizone model, group E
Source text: Measurement of the quantity of immunofluorescently-tagged CD4+ cells in the central part of the corpus callosum following 14 days of treatment in the cuprizone model (Fig 7). Morphology of mouse blood in the cuprizone model and the in vivo model testing short-term pharmacotherapy of oxysterol CF3-7α,25OHC (Fig 10).
A (Fig 7) control group: regular cuprizone-free chow for 9 weeks. Mice were euthanised after 9 weeks and tissue samples were taken for analysis. In these mice, myelin sheaths were not removed.
B (Fig 7) control group with cuprizone: chow containing cuprizone for 9 weeks. The mice were euthanised following 9 weeks and tissue samples were taken for analysis. In the mice fed with cuprizone-containing chow myelin sheaths were removed.
C (Fig 7) or #3 (Fig 8 and 9) vehicle control group - the mice were fed with chow containing cuprizone for 9 weeks, and then with regular chow without cuprizone for another 2 weeks. Over the 2 weeks on regular chow the mice in the vehicle control group were first injected vehicle #1: DMSO (intraperitoneal injection), 150 µl once a day, and then vehicle #2: canola oil, subcutaneously, 150 µl once a day.
E (Fig 7) or #5 experimental group with oxysterol CF3-7α,25OHC - the mice were fed with chow containing cuprizone for 9 weeks, and then with regular chow without cuprizone for another 2 weeks. […]

[3] = tested on: mice in the cuprizone model; test: Cuprizone model: luxol fast blue staining, lipoprotein (myelin) density in the corpus callosum; type: in vivo; conditions: 20 mg/kg subcutaneously once a day for 2 weeks after 9 weeks of cuprizone (group #5), compared to vehicle group #3
Source text: Measurement of lipoprotein density in myelin sheaths, taken on sections of brains of the mice in the cuprizone model. The mice in the cuprizone model subject were divided into 6 groups: • #1. control group: regular cuprizone-free chow for 9 weeks. The mice were euthanised after 9 weeks and tissue samples were taken for analysis. In these mice no removal of myelin sheaths occurred. • #2. control group with cuprizone: chow containing cuprizone for 9 weeks. The mice were euthanised after 9 weeks and tissue samples were taken for analysis. In the mice fed with chow containing cuprizone myelin sheaths were removed. • #3. vehicle control group - the mice were fed with chow containing cuprizone for 9 weeks, and then with regular chow without cuprizone for 2 weeks. Over the 2 weeks on regular show the mice in the vehicle control group were first injected with vehicle #1: DMSO, intraperitoneally, 150 µl once a day, and then with vehicle #2: canola oil, subcutaneously, 150 µl once a day. • #4. barbadin control group - the mice were fed with chow containing cuprizone for 9 weeks and then with regular chow without cuprizone for 2 weeks. Over the 2 weeks on regular chow the mice in this group were injected with barbadin 0.3 mg/kg, intraperitoneally, 150 µl once a day and then with vehicle #2: canola oil, subcutaneously, 150 µl once a day. • #5. oxysterol experimental group - the mice were fed with chow containing cuprizone for 9 weeks and then with regular chow without cuprizone for 2 weeks. […] Brain sections sampled from the mice were histochemically stained with luxol fast blue (Abcam, cat. No. Ab 150675), and the intensity (density) of the lipid staining in the corpus callosum was measured using the ImageJ software (ImageJ (nih.gov)). […]

C[C@H](CCCC(C)(C)O)[C@H]1CC[C@H]2[C@H]3[C@H](CC[C@]12C)[C@@]1(C)CC[C@H](O)CC1=C[C@]3(O)C(F)(F)F [CF3-7α,25OHC, cholestene-7β-trifluoromethyl,3β,7α,25-triol]
level of Ebi2 expression (Ebi2 receptor): increases the level of Ebi2 expression
content of cholesterol in the corpus callosum ([1]; group E (CF3-7α,25OHC 20 mg/kg) compared to control group treated with vehicles): higher
number of lipids with higher synthesis / concentration in the corpus callosum (brain) ([1]; group E compared to untreated group C): 15
mRNA level of IL1β dropped by ([2]; cerebellum lysates, cuprizone model, compared to the group treated solely with vehicles): 28%
blood-brain barrier penetration ([2]; concluded from the IL1β effect in the cerebellum): penetrates the blood-brain barrier
pro-inflammatory cytokine IL1β in cerebellum lysates ([2]; cuprizone model, group #5): Reduction
count of CD4+ cells in the corpus callosum (CD4+ cells): fewest; also recorded: lowest count
lipoprotein density in the corpus callosum, higher by [3]: 16%
myelin density / myelin regeneration in the corpus callosum [3]: increased
myelin density / myelin regeneration in the corpus callosum ([3]; listed as CF3-7α25OHC): more efficient (or faster) myelin regeneration
